Where a name gives a salt, the structure may show the parent alone.

Data set [1] relates to AMPA-induced seizure. The experiment in a line: Anticonvulsant effect on AMPA-induced seizure. The following applies: iv; mouse, i.v. 1 min before AMPA 2 nmol/5 μL i.c.v., observed 15 min, Probit method. Type of data set: in vivo, Slc-ddY mouse. As to the method:
The anticonvulsant effect of compound 2(2) on AMPA-induced seizure was determined. According to the method described in J. T. Haley and W. G. McCormich, Br. J. Pharmacol. 12, 12-15(1957), AMPA 2 nmol/5 μL was intracerebroventricular administered to the cerebral ventricle of Slc-ddY mouse (4-5 weeks, male). The test compound, in a volume of 0.1 mL /10 g, was intravenously administered 1 min before the AMPA administration. The convulsion was examined by observing and checking, for 15 min from the AMPA administration, the reveal of jumping, wild-running, […] convulsion and tonic convulsion, then the ED50 value was calculated by Probit method.

Data set [2] deals with T1, glycine-binding site of NMDA receptor complex (Rattus norvegicus, UniProt P35439).
T1 construct: from tissue; host or cells: rat cerebral cortex membrane fraction (Triton X-100 treated)
The experiment in a line: Receptor affinity: [3H]glycine binding to rat cerebral cortex membrane fraction. To be noted: 100 nM [3H]glycine, 0° C. 10 min. Also on record: species or system Slc-Wistar rat. The procedure:
(§1) As to 2-cyanoimino-1,4-dihydro-7-(1,4-dihydro-4-oxo-1-pyridyl)-6-nitro-3-quinoxaline monosodium salt (hereinafter referred to as compound 2(2)) obtained in Example 2(2), the affinity for the AMPA receptor and glycine-binding site of the NMDA receptor was determined as follows.
Cerebral cortex of Slc-Wistar rat (body weight: 250˜300 g) was homogenized with 20 times volume of 5 mM Tris-acetate buffer (pH 7.4) containing 1 mM EGTA, 0.1 mM PMSF and 0.01% bacitracin […] and re-suspended (×4 times). The resultant suspension was restored at −80° C. until use. The froze suspension was thawed at room temperature and incubated at 2° C. in 0.08% triton X-100 solution for 10 min, then the mixture was washed 2 times and suspended into 50 mM Tris-acetate buffer (pH 7.4), to give a membrane fraction. The membrane fraction was incubated with 100 nM [^3H]glycine and a test compound of various concentrations at 0° C. for 10 min. The mixture was diluted and collected by filtration with Whatman GF/C paper to terminate the reaction, then the radioactivity of ^3H remained on the filter was determined with a liquid scintillation counter. The non-specific binding was determined using 1 mM non-radioactive glycine to calculate the IC50 value.

For data set [3], the system named is kidney. The experiment in a line: Nephrotoxicity. The format is in vivo. The following applies: 100 mg/kg i.v. bolus, SD rat, 24 hr later. As to the method:
Compound 2(2) was intravenously administered by a bolus of 100 mg/kg to SD rat (9-10 weeks), which was killed 24 hr later. The both-side kidneys were immediately extracted from the rat. After measuring the weight, one kidney was embedded in paraffin to give a tissue preparation. The other kidney was homogenized, then the extract was subjected to liquid chromatography to determine the concentration of compound 2(2).

Data set [4] addresses AMPA receptor. The experiment in a line: Receptor affinity: [3H]AMPA binding to rat cerebral cortex membrane fraction. Also on record: species or system Slc-Wistar rat. The following applies: 30 nM [3H]AMPA, 0° C. 30 min. As to the method: as §1
Cerebral cortex of Slc-Wistar rat (body weight: 250˜300 g) was homogenized with 10 times volume of 30 mM Tris-acetate buffer (pH 7.1) containing 2.5 mM CaCl2, then the mixture was centrifugalized (30,000×g, 15 min) and re-suspended (×3 times). The resultant suspension was restored at −80° C. until use. The froze suspension was thawed at room temperature and suspended into 30 mM Tris-acetate buffer (pH 7.1) containing 2.5 mM CaCl2 and 100 mM KSCN, to give a membrane fraction. The membrane fraction was incubated with 30 nM [^3H]AMPA and a test compound of various concentrations at 0° C. for 30 min. The mixture was diluted and collected by filtration with Whatman GF/C filter to terminate the reaction, then the radioactivity of ^3H remained on the filter was determined with a liquid scintillation counter. The non-specific binding was determined using 1 mM non-radioactive glutamate to calculate the IC50 value.

Data set [5] relates to cerebral infarction. Kind of data set: Inhibition effect on cerebral infarction (MCA occlusion/reperfusion). Type of data set: in vivo, Slc-Wistar rat. The following applies: 24 hr of reperfusion. The text has this: As to compound 2(2), the inhibition effect on cerebral infarction was examined. […] Briefly the animals were anesthetized with halothane (FLUOTHANE, Takeda Chemical Industries Ltd.). After median incision of the neck skin, the right external carotid artery (ECA) was carefully dissected. A coated nylon thread (#4-0, 17.5 mm, Nitcho Kogyo Co. Ltd.) was inserted from the lumen of the ECA to the right internal carotid artery to occlude the origin of the right middle cerebral artery. After surgery, anesthesia was immediately discontinued. […] After 1 hr of MCA occlusion, the thread was removed to allow reperfusion under halothane anesthesia. Body temperature was maintained at 37° C. with a heating pad during ischemic and reperfusion surgery.
The test compound was administered from 15 min after reperfusion for 1 hr by continuous infusion via a catheter (Clay Adams; PE-20) inserted into the femoral vein in a volume of 4 ml/kg/hr.
After 24 hr of reperfusion following 1 hr of MCA occlusion, rat was perfused with physiological saline containing heparin under pentobarbital anesthesia and the brain were removed after decapitation. The brain was cut into 12 coronal sections at 1 mm intervals using tissue chopper (McLWAIN) and immersed in saline containing 2% 2,3,5-triphenyltetrazolium-Cl (Wako Pure Chemical Industries, Ltd.) for 15 min. The stained brain sections were fixed by 10% formalin neutral buffered solution and infarct areas were quantified by an image analyzer system (OPTIMAS, Ver6.0) following scanning (Scantouch210, Nikon).

Usually ED50 stands for the dose that gives a 50% effect, or the effect in half of the subjects. Read a high ED50 as weaker potency. The term IC50 denotes the concentration that gives 50% inhibition. High values mean weaker potency, low ones greater potency. Consider `N#CN=c1[nH]c2cc(-n3ccc(=O)cc3)c([N+](=O)[O-])cc2[nH]c1=O` [compound 2(2), 2-cyanoimino-1,4-dihydro-7-(1,4-dihydro-4-oxo-1-pyridyl)-6-nitro-3-quinoxaline monosodium salt], for which the ED50 in data set [1] was found to be 6.9 mg/kg. Also, the IC50 in data set [2] is 7.5 µM; in data set [4], 0.034 µM. The Kidney tissue pathology entry in data set [3] is reported as “no pathological unusual”. For the same compound, the “Weight of the kidney compared to the vehicle group” value in data set [3] is listed as “has not changed”. For the same compound, in data set [3] (kidney homogenate), the “Concentration of compound in the kidney (liquid chromatography)” value is given as “not detected”. The “Infarct area at cerebral cortex (% of saline, mean ± standard error)” value in data set [5] (0.3 mg/kg/h i.v. infusion for 1 hr from 15 min after reperfusion) is 79.55 ± 13.99 % of saline; in data set [5] (1 mg/kg/h i.v. infusion for 1 hr from 15 min after reperfusion), 55.99 ± 11.77 % of saline; in data set [5] (3 mg/kg/h i.v. infusion for 1 hr from 15 min after reperfusion), 50.34 ± 10.14 % of saline; in data set [5] (10 mg/kg/h i.v. infusion for 1 hr from 15 min after reperfusion), 46.71 ± 15.24 % of saline.
